Results from ChEMBL document CHEMBL1127955, “Enantioselective synthesis of the optical isomers of broad-spectrum orally active antifungal azoles, Sch 42538 and Sch 45012” (1994).
Several values for one entry are separate records, joined by “and”; a condition that tells them apart may be missing. Identical values can stand only once.

Tests used:
Assay type in all cases: functional
Mus musculus [1] = test: Compound was tested for the colony forming units of C. Albicans in mice at a dose of 50 mg/kg expressed as geometric mean
Mus musculus [2] = test: Compound was tested for the oral activity in CF-1 mice infected with Aspergillus flavus at a dose of 66 mg/kg of 4 days post infection; settings: for Survival: 66 mg/kg; for survival at 66 mg/kg: Mus musculus, po, 96 h
Mus musculus [3] = species on record: Mus musculus; test: Compound was tested for the oral activity in CF-1 mice infected with Aspergillus flavus by sabouraud dextrose broth of pH 5.7 duration of 72 h; set-up: unit not given here
Mus musculus [4] = test: Compound was tested for the colony forming units of Aspergillus flavus in mice at a dose of 66 mg/kg expressed as geometric mean
Mus musculus [5] = test: Compound was tested for the oral activity in CF-1 mice infected with C. Albicans at a dose of 50 mg/kg of 4 days post infection; settings: for Survival: 50 mg/kg; for survival at 50 mg/kg: Mus musculus, po, 96 h
Mus musculus [6] = test: Compound was tested for the oral activity in CF-1 mice infected with C. Albicans at a dose of 25 mg/kg of 4 days post infection; settings: for Survival: 25 mg/kg; for survival at 25 mg/kg: Mus musculus, po, 96 h
Mus musculus [7] = test: Compound was tested for the colony forming units of C. Albicans in mice at a dose of 25 mg/kg expressed as geometric mean
Mus musculus [8] = test: Compound was tested for the oral activity in CF-1 mice infected with C. Albicans at a dose of 10 mg/kg of 4 days post infection
Mus musculus [9] = test: Compound was tested for the colony forming units of C. Albicans in mice at a dose of 10 mg/kg expressed as geometric mean
Mus musculus [10] = test: Compound was tested for the colony forming units of Aspergillus flavus in mice at a dose of 100 mg/kg expressed as geometric mean
Mus musculus [11] = test: Compound was tested for the oral activity in CF-1 mice infected with Aspergillus flavus at a dose of 100 mg/kg of 4 days post infection; settings: for Survival: 100 mg/kg; for survival at 100 mg/kg: Mus musculus, po, 96 h
Mus musculus [12] = species on record: Mus musculus; test: Compound was tested for the oral activity in CF-1 mice infected with C. Albicans in eagles essential medium at pH 7.0 duration of 48 h; set-up: unit not given here

| SMILES | CFU (Mus musculus [1]; 50 mg/kg) | Survival (Mus musculus [2]) | MIC (Mus musculus [3]) | CFU (Mus musculus [4]) | Survival (Mus musculus [5]) | Survival (Mus musculus [6]) | CFU (Mus musculus [7]; 25 mg/kg) | Survival (Mus musculus [8]; 10 mg/kg) | CFU (Mus musculus [9]; 10 mg/kg) | CFU (Mus musculus [10]) | Survival (Mus musculus [11]) | MIC (Mus musculus [12]) | CFU (Mus musculus [1]) | survival at 66 mg/kg (Mus musculus [2]) | survival at 50 mg/kg (Mus musculus [5]) | survival at 25 mg/kg (Mus musculus [6]) | CFU (Mus musculus [7]) | survival at 10 mg/kg (Mus musculus [8]; Mus musculus, po, 96 h) | CFU (Mus musculus [9]) | survival at 100 mg/kg (Mus musculus [11]) |
| --- | --- | --- | --- | --- | --- | --- | --- | --- | --- | --- | --- | --- | --- | --- | --- | --- | --- | --- | --- | --- |
| CCC(C)n1ncn(-c2ccc(N3CCN(c4ccc(OC[C@@H]5COC(Cn6cncn6)(c6ccc(F)cc6F)C5)cc4)CC3)cc2)c1=O (single isomer, unassigned) | 4.99 | 50% | 0.0625 | 2.25 | 100% | 100% | 5.14 | 40% and 90% | 7.42 and 5.92 | 1.95 | 100% | 0.0039 |  |  |  |  |  |  |  |  |
| CCC(C)n1ncn(-c2ccc(N3CCN(c4ccc(OC[C@@H]5CO[C@@](Cn6cncn6)(c6ccc(Cl)cc6Cl)O5)cc4)CC3)cc2)c1=O (stereo partly drawn) [ITRACONAZOLE] |  |  | 0.125 |  |  |  |  |  |  |  |  | 0.0078 | 6.68 | 0% | 60% | 0% | 9 | 10% | 8.87 | 20% |
| CC[C@@H](C)n1ncn(-c2ccc(N3CCN(c4ccc(OC[C@@H]5COC(Cn6cncn6)(c6ccc(F)cc6F)C5)cc4)CC3)cc2)c1=O (single isomer, unassigned) | 9 | 0% | >8 |  | 0% | 0% | 9 |  |  |  | 10% | 0.0313 |  |  |  |  |  |  |  |  |
| CCC(C)n1ncn(-c2ccc(N3CCN(c4ccc(OC[C@H]5CO[C@](Cn6cncn6)(c6ccc(F)cc6F)O5)cc4)CC3)cc2)c1=O (single isomer, unassigned) [SAPERCONAZOLE] | 8.2 and 9 |  | 0.0313 |  | 20% and 0% |  |  |  |  |  |  | 0.0039 |  |  |  |  |  |  |  | 0% |
| CC[C@H](C)n1ncn(-c2ccc(N3CCN(c4ccc(OC[C@@H]5COC(Cn6cncn6)(c6ccc(F)cc6F)C5)cc4)CC3)cc2)c1=O (single isomer, unassigned) [SCH-49999] |  |  | >8 |  |  |  |  |  |  |  |  | 0.0625 | 7.84 | 0% | 20% | 0% | 9 |  |  | 20% |
